The text below walks through data of US7651999B2, “2′, 5′-oligoadenylate analogs” (Sankyo Company, Limited, priority 2002, dated 2010).

The assay deals with Human lung cancer cell line A549 cells. Particulars: 72 hours, MTT, 0.001-10 μM tested.
[1] abbreviates: read-out: 50% Growth inhibitory concentrations of the subject compounds with respect to A549 cells, Experiment 1.
[2] abbreviates: read-out: 50% Growth inhibitory concentrations of the subject compounds with respect to A549 cells, Experiment 2.
Where [3] appears, read: read-out: 50% Growth inhibitory concentrations of the subject compounds with respect to A549 cells, Experiment 3.

The structures appear in SMILES notation. Like-named read-outs stand apart in the source and are kept apart here.

Method: Human lung cancer cell line A549 cells were plated at a density of 800 cells/200 μl in a 96-well plate using RPMI1640 (Gibco BRL) (containing 10% Fetal Bovine Serum (Hyclone)) for the medium followed by culturing overnight in 5% CO2 at 37° C. Each 2-5A analog was added to each well so that the final concentration became 0.001-10 μM, followed by culturing for 72 hours (3 days) (n=3 or 4). After culturing for 72 hours (3 days), MTT (3-[4,5-dimethylthiazol-2-yl]-2,5-diphenyltetrazolium bromide) was added in 50 μl aliquots to each well at a MTT/RPMI1640 concentration of 5 mg/ml, followed by additionally culturing for 4 hours. After 4 hours, the medium was removed and 150 μl of dimethyl sulfoxide were added to each well. After shaking for 5 minutes, UV absorbance at 540 nm, was measured to determine the relative ratio of the number of viable cells of the compound dose group to the number of viable cells of an untreated cell group followed by calculation of the IC50 concentration that inhibits cell growth by 50%.

On to `COC1C(OP(=O)(O)OC[C@H]2O[C@@H](n3cnc4c(N)ncnc43)C(OP(=O)(O)OC[C@]34CCCOC3C(O)[C@H](n3cnc5c(N)ncnc53)O4)C2O)[C@H](n2cnc3c(N)ncnc32)O[C@@H]1COP(O)(O)=S` (some centres unmarked) [Example 2], for which the IC50 runs as follows: under setting [1], 1530 nM; under setting [2], 910 nM. In the case of `Nc1ncnc2c1ncn2[C@@H]1O[C@@]2(COP(=O)(O)OC3C(O)[C@@H](COP(=O)(S)OC4C(O)[C@@H](COP(=O)(O)S)O[C@H]4n4cnc5c(N)ncnc54)O[C@H]3n3cnc4c(N)ncnc43)CCCOC2C1O` (some centres unmarked) [Example 8], under setting [1], the IC50 was found to be 2230 nM. Regarding `COC1C(OP(=O)(O)OC[C@H]2O[C@@H](n3cnc4c(N)ncnc43)C(OP(=O)(O)OC[C@]34CCCOC3C(O)[C@H](n3cnc5c(N)ncnc53)O4)C2O)[C@H](n2cnc3c(N)ncnc32)O[C@@H]1COP(=O)(O)SCCOC(=O)C(C)(C)C` (some centres unmarked) [Example 13], under setting [2], the IC50 stood at 2540 nM. Regarding `COC1C(OP(=O)(O)OC[C@H]2O[C@@H](n3cnc4c(N)ncnc43)C(OP(=O)(O)OC[C@]34CCCOC3C(O)[C@H](n3cnc5c(N)ncnc53)O4)C2O)[C@H](n2cnc3c(N)ncnc32)O[C@@H]1COP(=O)(O)SCCO` (some centres unmarked) [Example 33], the IC50 under setting [3] was determined as 2150 nM.

Consider `CCCCCCCCCC(=O)OCCSP(=O)(O)OC[C@H]1O[C@@H](n2cnc3c(N)ncnc32)C(OP(=O)(O)OC[C@H]2O[C@@H](n3cnc4c(N)ncnc43)C(OP(=O)(O)OC[C@]34CCCOC3C(O)[C@H](n3cnc5c(N)ncnc53)O4)C2O)C1OC` (some centres unmarked) [Example 17], for which the IC50 under setting [2] worked out at 350 nM.

`CCCCCCCCCCCCCC(=O)OCCSP(=O)(O)OC[C@H]1O[C@@H](n2cnc3c(N)ncnc32)C(OP(=O)(O)OC[C@H]2O[C@@H](n3cnc4c(N)ncnc43)C(OP(=O)(O)OC[C@]34CCCOC3C(O)[C@H](n3cnc5c(N)ncnc53)O4)C2O)C1OC` (some centres unmarked) [Example 16]: the IC50 under setting [2] turned out to be 90 nM.

Take `Nc1ncnc2c1ncn2[C@@H]1O[C@H](COP(O)(=S)OC2C(O)[C@@H](COP(O)(=S)OC3C(O)[C@@H](COP(O)(O)=S)O[C@H]3n3cnc4c(N)ncnc43)O[C@H]2n2cnc3c(N)ncnc32)C(O)C1O` (some centres unmarked) [Example 4]: the IC50 by setting is: under setting [1], 480 nM; under setting [2], 610 nM; under setting [3], 380 nM. On to `COC1C(OP(=O)(S)OC[C@H]2O[C@@H](n3cnc4c(N)ncnc43)C(OP(=O)(O)OC[C@]34CCCOC3C(O)[C@H](n3cnc5c(N)ncnc53)O4)C2O)[C@H](n2cnc3c(N)ncnc32)O[C@@H]1COP(=O)(O)SCOC(=O)C(C)(C)C` (some centres unmarked) [Example 9], for which, under setting [1], the IC50 was 1390 nM. Turning to `COC1C(OP(=O)(O)OC[C@H]2O[C@@H](n3cnc4c(N)ncnc43)C(OP(=O)(O)OC[C@]34CCCOC3C(O)[C@H](n3cnc5c(N)ncnc53)O4)C2O)[C@H](n2cnc3c(N)ncnc32)O[C@@H]1COP(=O)(O)SCCOC(=O)c1ccccc1` (some centres unmarked) [Example 14], the IC50 under setting [2] is 2340 nM. In the case of `COC1C(OP(=O)(O)OC[C@H]2O[C@@H](n3cnc4c(N)ncnc43)C(OP(=O)(O)OC[C@]34CCCOC3C(O)[C@H](n3cnc5c(N)ncnc53)O4)C2O)[C@H](n2cnc3c(N)ncnc32)O[C@@H]1COP(=O)(O)SCOC(=O)C(C)(C)C` (some centres unmarked) [Example 5], the IC50 is 400 nM under setting [1] and 320 nM under setting [2].
